Here are results for 20 compounds from ChEMBL document CHEMBL4184240, “Potent human glutaminyl cyclase inhibitors as potential anti-Alzheimer's agents: Structure-activity relationship study of Arg-mimetic region” (Bioorg Med Chem, 2018).

The nature of data set [1]: Cytotoxicity against mouse HT22 cells assessed as cell viability at 10 uM relative to control. It is filed as cell-based, HT-22. As to conditions: read-out: Activity.
A further data set concerns the target hERG (KCNH2) (Homo sapiens, UniProt Q12809). The data set can be described thus: Inhibition of human ERG at 10 uM relative to control.
Data set [2] is filed under the species Mus musculus. To be noted: ICR, 25 mg/kg.
Description: (§1) Antialzheimer activity in human amyloid beta (3 to 40) induced acute ICR mouse Alzheimer's disease mouse model assessed as inhibition of amyloid beta (N3pE to 40) formation in brain at 25 mg/kg, icv administered via deep cortical/hippocampal tissue measured next day by sandwich ELISA relative to control
Data set [3] in a line: Permeability of the compound at pH 7.4 after 30 mins by PAMPA. It is filed as ADME. To be noted: pH 7.4, 0.5 h. Background: PAMPA measures passive passage across an artificial lipid membrane.
The species named for data set [4] is Mus musculus. The data set can be described thus: animal or person. To be noted: ICR, central, read-out: INH.
Description: as §1

Each structure is given as a SMILES string. The source made the active and inactive calls. The calls are words filed in the database; no cut-off is given here.

Sequence of hERG (KCNH2) (Q12809 whole entry): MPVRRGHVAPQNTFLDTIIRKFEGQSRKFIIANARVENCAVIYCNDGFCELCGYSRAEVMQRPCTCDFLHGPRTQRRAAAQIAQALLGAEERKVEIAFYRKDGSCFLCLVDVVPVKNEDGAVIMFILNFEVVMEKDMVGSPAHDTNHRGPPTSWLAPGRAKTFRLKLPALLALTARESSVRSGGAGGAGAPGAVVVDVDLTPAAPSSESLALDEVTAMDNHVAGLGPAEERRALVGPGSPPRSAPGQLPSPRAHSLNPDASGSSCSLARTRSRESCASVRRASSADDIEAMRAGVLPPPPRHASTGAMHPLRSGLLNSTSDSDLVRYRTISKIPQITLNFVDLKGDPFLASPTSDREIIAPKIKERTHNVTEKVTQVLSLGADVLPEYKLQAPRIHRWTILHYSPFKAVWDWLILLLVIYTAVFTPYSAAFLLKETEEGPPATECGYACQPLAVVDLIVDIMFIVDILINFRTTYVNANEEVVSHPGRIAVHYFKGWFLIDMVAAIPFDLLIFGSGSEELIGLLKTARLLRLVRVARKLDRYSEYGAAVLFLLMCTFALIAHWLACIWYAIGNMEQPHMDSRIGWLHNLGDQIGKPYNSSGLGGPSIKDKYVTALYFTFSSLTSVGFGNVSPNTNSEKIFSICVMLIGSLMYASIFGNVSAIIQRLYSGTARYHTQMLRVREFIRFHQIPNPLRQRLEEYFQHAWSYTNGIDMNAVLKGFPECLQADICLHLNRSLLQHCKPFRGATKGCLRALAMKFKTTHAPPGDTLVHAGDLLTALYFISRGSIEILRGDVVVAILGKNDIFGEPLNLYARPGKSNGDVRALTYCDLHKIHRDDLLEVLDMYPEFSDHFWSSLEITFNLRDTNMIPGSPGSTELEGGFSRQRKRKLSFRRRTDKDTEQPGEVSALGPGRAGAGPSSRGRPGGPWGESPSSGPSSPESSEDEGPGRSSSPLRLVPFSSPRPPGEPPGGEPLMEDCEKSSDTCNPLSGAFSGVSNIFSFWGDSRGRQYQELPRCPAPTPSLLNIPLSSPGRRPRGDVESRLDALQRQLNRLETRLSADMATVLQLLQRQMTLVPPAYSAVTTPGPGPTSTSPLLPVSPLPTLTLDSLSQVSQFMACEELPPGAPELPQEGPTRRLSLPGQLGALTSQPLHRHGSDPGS

As to `COc1cc(NC(=S)NCCCn2cncc2C)ccc1OCCN1CCN(CCOCCN)CC1`, the viability at 10 µM in data set [1] turned out to be 51.1%.

A word on the inhibition: it is the change of the read-out against control, counted positive when it falls. Regarding `COc1cc(NC(=S)NCCCn2cncc2C)ccc1Oc1ccc(C2CCNCC2)cc1`, in data set [1], the viability at 10 µM came to 100%. The same compound came in with an inhibition at 10 µM on hERG (KCNH2) of 72.8%. Besides, in the data set filed under Mus musculus [2], the inhibition entry is “inactive”. Moreover, the “log(permeability)” value in data set [3] was -5.6.

As to `COc1cc(NC(=S)NCCCn2cncc2C)ccc1OCCC(=O)N1CCNCC1`, the inhibition in vivo at 25 mg/kg in the data set listed under Mus musculus [4] is 18.7%. For the same compound, in data set [1], the viability at 10 µM is 100%. On hERG (KCNH2), this compound returned an inhibition at 10 µM of 1.7%. The “log(permeability)” value in data set [3] is on record as -5.7.

On to `COc1cc(NC(=S)NCCCn2cncc2C)ccc1OCC(=O)N1CCN(CCN)CC1`, for which, in data set [1], the viability at 10 µM turned out to be 100%. At hERG (KCNH2), 10 µM produced 14% inhibition. In addition, in the data set listed under Mus musculus [2], the inhibition entry is “inactive”. Moreover, in data set [3], the “log(permeability)” value was -10.

On to `COc1cc(NC(=S)NCCCn2cncc2C)ccc1OCCCCN1CCN(CCN)CC1`, for which the viability at 10 µM in data set [1] amounted to 100%. In addition, the inhibition at 10 µM against hERG (KCNH2) was found to be 21.1%. The inhibition entry in the data set listed under Mus musculus [2] is “inactive”. Besides, the “log(permeability)” value in data set [3] was -10.

As to `COc1cc(NC(=S)NCCCn2cncc2C)ccc1OCc1ccc(C2CCNCC2)cc1`, in the data set listed under Mus musculus [4], the inhibition in vivo at 25 mg/kg amounted to 30%. Moreover, the viability at 10 µM in data set [1] worked out at 100%. The compound also yielded an inhibition at 10 µM on hERG (KCNH2) of 40.1%. The “log(permeability)” value in data set [3] is given as -5.8.

For `COc1cc(NC(=S)NCCCn2cncc2C)ccc1Oc1ccc(C2=CCNCC2)cc1`, the inhibition in vivo at 25 mg/kg in the data set filed under Mus musculus [4] was found to be 16.1%. Moreover, the viability at 10 µM in data set [1] turned out to be 100%. Further, the inhibition at 10 µM against hERG (KCNH2) is 52.8%. The “log(permeability)” value in data set [3] is -4.9.

For the compound `COc1cc(NC(=S)NCCCn2cncc2C)ccc1Oc1ccc(N2CCNCC2)cc1`, in data set [1], the viability at 10 µM came out at 100%. For the same compound, at hERG (KCNH2), at 10 µM the inhibition was 39.7%. Also, in the data set listed under Mus musculus [2], the inhibition entry is “inactive”. Also, in data set [3], the “log(permeability)” value is on record as -5.6.

As to `COc1cc(NC(=S)NCCCn2cncc2C)ccc1OCCC(=O)NC1CCNCC1`, the inhibition in vivo at 25 mg/kg in the data set listed under Mus musculus [4] was found to be 13.5%. Moreover, in data set [1], the viability at 10 µM amounted to 100%. For the same compound, on hERG (KCNH2), the inhibition at 10 µM was determined as 5%. In addition, in data set [3], the “log(permeability)” value is on record as -5.6.

As for `COc1cc(NC(=S)NCCCn2cncc2C)ccc1OCCCCc1ccnc(NCCN)c1`, the viability at 10 µM in data set [1] was found to be 100%. At hERG (KCNH2), this compound had an inhibition at 10 µM of 31.5%. The inhibition result in the data set listed under Mus musculus [2] is “inactive”. Besides, the “log(permeability)” value in data set [3] is -10.

In the case of `COc1cc(NC(=S)NCCCn2cncc2C)ccc1OCCN1CCN(CCO)CC1`, in data set [1], the viability at 10 µM worked out at 100%. In addition, the inhibition at 10 µM against hERG (KCNH2) is 9.7%. The inhibition result in the data set listed under Mus musculus [2] was “inactive”. For the same compound, the “log(permeability)” value in data set [3] is -6.

With `COc1cc(NC(=S)NCCCn2cncc2C)ccc1OCCC1CCN(CCO)CC1`, the inhibition in vivo at 25 mg/kg in the data set listed under Mus musculus [4] came to 0.19%. Besides, the viability at 10 µM in data set [1] worked out at 100%. Further, at 10 µM the inhibition against hERG (KCNH2) was 8.2%. Also, in data set [3], the “log(permeability)” value was -6.7.

Regarding `COc1cc(NC(=S)NCCCn2cncc2C)ccc1OCCCC(=O)N1CCNCC1`, the inhibition in vivo at 25 mg/kg in the data set listed under Mus musculus [4] amounted to 8.07%. The viability at 10 µM in data set [1] amounted to 100%. The compound further came in with an inhibition at 10 µM on hERG (KCNH2) of 1.9%. The “log(permeability)” value in data set [3] is -5.7.

For the compound `COc1cc(NC(=S)NCCCn2cncc2C)ccc1OCCN1CCN(CCN)CC1`, the inhibition in vivo at 25 mg/kg in the data set listed under Mus musculus [4] was 5.43%. Besides, the viability at 10 µM in data set [1] amounted to 100%. On hERG (KCNH2), this compound returned an inhibition at 10 µM of 2.5%. The “log(permeability)” value in data set [3] is reported as -5.7.

Regarding `COc1cc(NC(=S)NCCCn2cncc2C)ccc1OCCCCN1CCN(CCO)CC1`, in data set [1], the viability at 10 µM worked out at 100%. Also, in data set [3], the “log(permeability)” value is on record as -8.7.

As to `COc1cc(NC(=S)NCCCn2cncc2C)ccc1OCCN1CCNCC1C` (stereo not given), the inhibition in vivo at 25 mg/kg in the data set listed under Mus musculus [4] was 3.01%. In addition, the viability at 10 µM in data set [1] was found to be 100%. Also, testing at 10 µM at hERG (KCNH2) gave an inhibition of 33.4%. Moreover, the “log(permeability)” value in data set [3] is given as -5.8.

Turning to `COc1cc(NC(=S)NCCCn2cncc2C)ccc1OCCCCc1ccnc(NCCO)c1`, the viability at 10 µM in data set [1] amounted to 100%. At hERG (KCNH2), this compound displayed an inhibition at 10 µM of 44.4%. The inhibition result in the data set listed under Mus musculus [2] is “inactive”. Also, the “log(permeability)” value in data set [3] is recorded as -10.

`COc1cc(NC(=S)NCCCn2cncc2C)ccc1OCCCN1CCN(CCN)CC1`: the viability at 10 µM in data set [1] was 100%. Also, at hERG (KCNH2), the inhibition at 10 µM turned out to be 28.9%. Also, in the data set filed under Mus musculus [2], the inhibition entry was “inactive”. The “log(permeability)” value in data set [3] is recorded as -10.

For `COc1cc(NC(=S)NCCCn2cncc2C)ccc1OCC(=O)NC1CCN(CCN)CC1`, the viability at 10 µM in data set [1] is 100%. For the same compound, at hERG (KCNH2), testing at 10 µM gave an inhibition of 17.8%. In addition, in the data set filed under Mus musculus [2], the inhibition entry is “inactive”. Besides, the “log(permeability)” value in data set [3] is given as -6.4.

For the compound `COc1cc(NC(=S)NCCCn2cncc2C)ccc1OCCN1CC(C)NC(C)C1` (stereo not given), the viability at 10 µM in data set [1] was 100%. The compound also yielded an inhibition at 10 µM against hERG (KCNH2) of 2.5%. For the same compound, the inhibition entry in the data set filed under Mus musculus [2] was “inactive”. The “log(permeability)” value in data set [3] is -5.3.
